Laboratory results reported in ChEMBL document CHEMBL3351420, “Liver X receptor (LXR) partial agonists: biaryl pyrazoles and imidazoles displaying a preference for LXRβ” (Bioorg Med Chem Lett, 2015).

target: Retinoic acid receptor RXR-alpha/oxysterols receptor LXR-beta (Homo sapiens, UniProt P55055); assay: Binding affinity to LXRbeta-RXRalpha heterodimer (unknown origin) expressed in insect cells by scintillation proximity assay; conditions: not given
Sequence (P19793 whole entry, one chain of several): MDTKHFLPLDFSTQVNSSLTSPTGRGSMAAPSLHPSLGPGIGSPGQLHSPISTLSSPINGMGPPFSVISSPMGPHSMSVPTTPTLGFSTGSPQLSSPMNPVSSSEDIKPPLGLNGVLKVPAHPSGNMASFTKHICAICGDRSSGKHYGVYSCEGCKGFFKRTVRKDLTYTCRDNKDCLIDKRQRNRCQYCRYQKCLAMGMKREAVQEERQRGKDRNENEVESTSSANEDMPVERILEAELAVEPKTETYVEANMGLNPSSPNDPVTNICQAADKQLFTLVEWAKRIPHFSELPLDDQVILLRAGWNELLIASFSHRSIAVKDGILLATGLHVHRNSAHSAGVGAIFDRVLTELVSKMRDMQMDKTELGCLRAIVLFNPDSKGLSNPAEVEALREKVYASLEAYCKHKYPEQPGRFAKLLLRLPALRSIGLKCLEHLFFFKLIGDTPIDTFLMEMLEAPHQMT

N#Cc1c(C(F)(F)F)cc(-c2ccc(Oc3ccccc3)cc2)n(Cc2ccc(F)cc2F)c1=O and CS(=O)(=O)c1cccc(-c2ccc(-c3cc(C(F)(F)F)c(C#N)c(=O)n3Cc3ccc(F)cc3F)s2)c1 are within 1.5-fold of each other in Ki: 9 nM for the first, 11 nM for the second.

First: CS(=O)(=O)c1cccc(-c2ccc(-c3cc(C(F)(F)F)nn3Cc3ccc(F)cc3F)s2)c1
Second: CS(=O)(=O)c1cccc(-c2ccc(-c3cc(C(F)(F)F)nn3-c3ccccc3C(F)(F)F)s2)c1
The Ki of the first is 2.3-fold lower: 7 nM for the first, 16 nM for the second.

Going from CC(C)(O)c1cn(-c2ccc(-c3cccc(S(C)(=O)=O)c3)cc2)c(Cc2ccccc2C(F)(F)F)n1 to CC(C)(O)c1cn(-c2ccc(-c3cccc(S(C)(=O)=O)c3)cc2)c(-c2ccccc2Cl)n1, the Ki rises from 7 nM to 59 nM (8.4-fold). The first binds more tightly here.

Compared with COC(=O)c1cc(-c2ccc(-c3cccc(S(C)(=O)=O)c3)s2)n(-c2ccccc2Cl)n1, CC(C)(O)c1cc(-c2ccc(-c3cccc(S(C)(=O)=O)c3)s2)n(-c2ccccc2Cl)n1 is 8.3-fold higher in Ki: 10 nM for the first, 83 nM for the second.

target: Liver X receptor (Homo sapiens) (UniProt Q13133+P55055); assay: Transactivation of LXR in human whole blood assessed as induction of ABCA1 after 4 hrs by SYBR-Green quantitative PCR analysis relative to 1-(2,4-difluorobenzyl)-2-oxo-6-(4-phenoxyphenyl)-4-(trifluoromethyl)-1,2-dihydropyridine-3-carbonitrile; conditions: not given

First: CC(C)(O)c1cn(-c2ccc(-c3cccc(S(C)(=O)=O)c3)cc2)c(Cc2ccccc2C(F)(F)F)n1
Second: CC(C)(O)c1cn(-c2ccc(-c3cccc(S(C)(=O)=O)c3)cc2)c(-c2ccccc2Cl)n1
The Efficacy of the first is lower: 30% for the first, 31% for the second.

tested on: not listed separately; assay: Drug uptake in mouse liver at 30 mg/kg, po measured at 24 hrs post dose; assay type: ADME, organism-based; design: dose 30 mg/kg, route oral; conditions: read-out: Drug uptake

Going from CC(C)(O)c1cn(-c2ccc(-c3cccc(S(C)(=O)=O)c3)cc2)c(Cc2ccccc2C(F)(F)F)n1 to CC(C)(O)c1cn(-c2ccc(-c3cccc(S(C)(=O)=O)c3)cc2)c(-c2ccccc2Cl)n1, the concentration at 24 h rises from 0.2 µM to 13.2 µM (66-fold).

target: T1, Oxysterols receptor LXR-beta (Homo sapiens, UniProt P55055); assay: Transactivation of LXRbeta (unknown origin) expressed in CV1 cells by luciferase reporter gene assay; assay type: cell-based, CV-1; conditions: not given
T1 sequence (P55055 whole entry): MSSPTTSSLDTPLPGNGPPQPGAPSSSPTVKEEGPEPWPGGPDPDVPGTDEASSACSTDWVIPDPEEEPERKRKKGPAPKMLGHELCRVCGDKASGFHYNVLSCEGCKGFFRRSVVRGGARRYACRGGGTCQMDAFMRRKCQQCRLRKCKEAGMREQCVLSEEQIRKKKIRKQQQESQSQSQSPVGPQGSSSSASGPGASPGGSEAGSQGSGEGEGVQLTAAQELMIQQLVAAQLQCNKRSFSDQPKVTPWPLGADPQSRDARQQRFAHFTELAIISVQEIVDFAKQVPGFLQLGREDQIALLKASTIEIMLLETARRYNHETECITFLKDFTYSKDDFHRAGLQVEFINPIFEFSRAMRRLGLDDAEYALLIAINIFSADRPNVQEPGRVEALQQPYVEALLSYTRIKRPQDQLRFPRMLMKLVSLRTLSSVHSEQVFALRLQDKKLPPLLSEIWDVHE

Going from N#Cc1c(C(F)(F)F)cc(-c2ccc(Oc3ccccc3)cc2)n(Cc2ccc(F)cc2F)c1=O to CS(=O)(=O)c1cccc(-c2ccc(-c3cc(C(F)(F)F)c(C#N)c(=O)n3Cc3ccc(F)cc3F)s2)c1, the EC50 falls from 20 nM to 2 nM (10-fold). The second is the more potent here.

Going from CS(=O)(=O)c1cccc(-c2ccc(-c3cc(C(F)(F)F)nn3Cc3ccc(F)cc3F)s2)c1 to CS(=O)(=O)c1cccc(-c2ccc(-c3cc(C(F)(F)F)nn3-c3ccccc3C(F)(F)F)s2)c1, the EC50 rises from 14 nM to 68 nM (4.9-fold). The first is the more potent here.

First: CC(C)(O)c1cn(-c2ccc(-c3cccc(S(C)(=O)=O)c3)cc2)c(Cc2ccccc2C(F)(F)F)n1
Second: CC(C)(O)c1cn(-c2ccc(-c3cccc(S(C)(=O)=O)c3)cc2)c(-c2ccccc2Cl)n1
The EC50 of the first is 4.3-fold lower: 140 nM for the first, 600 nM for the second. The first is the more potent here.

First: COC(=O)c1cc(-c2ccc(-c3cccc(S(C)(=O)=O)c3)s2)n(-c2ccccc2Cl)n1
Second: CC(C)(O)c1cc(-c2ccc(-c3cccc(S(C)(=O)=O)c3)s2)n(-c2ccccc2Cl)n1
The EC50 of the first is 9.7-fold lower: 64 nM for the first, 620 nM for the second. The first is the more potent here.

target: T2, Liver X receptor (Homo sapiens, UniProt Q13133+P55055); assay: Transactivation of LXR (unknown origin) expressed in human HeLa cells by ABCA1 LXREx3 reporter assay; assay type: cell-based; conditions: not given
T2 sequence (Q13133 whole entry): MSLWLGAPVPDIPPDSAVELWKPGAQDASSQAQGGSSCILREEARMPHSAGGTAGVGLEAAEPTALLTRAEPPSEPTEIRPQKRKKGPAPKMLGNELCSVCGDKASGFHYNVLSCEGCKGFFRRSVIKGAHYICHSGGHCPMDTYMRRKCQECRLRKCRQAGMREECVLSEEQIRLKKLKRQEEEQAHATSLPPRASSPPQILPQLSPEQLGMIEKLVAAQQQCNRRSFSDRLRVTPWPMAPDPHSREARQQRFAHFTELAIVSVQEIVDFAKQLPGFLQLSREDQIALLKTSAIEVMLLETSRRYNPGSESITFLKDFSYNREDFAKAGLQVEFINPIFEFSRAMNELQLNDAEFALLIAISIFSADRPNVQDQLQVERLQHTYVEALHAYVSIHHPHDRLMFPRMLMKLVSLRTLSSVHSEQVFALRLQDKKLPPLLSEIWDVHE
T2 sequence (P55055 whole entry): T1 sequence (P55055 whole entry)

Going from N#Cc1c(C(F)(F)F)cc(-c2ccc(Oc3ccccc3)cc2)n(Cc2ccc(F)cc2F)c1=O to CC(C)(O)c1cn(-c2ccc(-c3cccc(S(C)(=O)=O)c3)cc2)c(Cc2ccccc2C(F)(F)F)n1, the EC50 rises from 7 nM to 27 nM (3.9-fold).

Going from COC(=O)c1cc(-c2ccc(-c3cccc(S(C)(=O)=O)c3)s2)n(-c2ccccc2Cl)n1 to CC(C)(O)c1cc(-c2ccc(-c3cccc(S(C)(=O)=O)c3)s2)n(-c2ccccc2Cl)n1, the EC50 rises from 310 nM to 800 nM (2.6-fold).

First: CC(C)(O)c1cn(-c2ccc(-c3cccc(S(C)(=O)=O)c3)cc2)c(-c2ccccc2Cl)n1
Second: CS(=O)(=O)c1cccc(-c2ccc(-c3cc(C(F)(F)F)nn3-c3ccccc3C(F)(F)F)s2)c1
The EC50 of the first is 18-fold higher: 140 nM for the first, 8 nM for the second.

tested on: not listed separately; assay: Plasma concentration in mouse at 30 mg/kg, po measured at 24 hrs post dose; assay type: ADME, organism-based; design: dose 30 mg/kg, route oral; conditions: not given

First: CC(C)(O)c1cn(-c2ccc(-c3cccc(S(C)(=O)=O)c3)cc2)c(Cc2ccccc2C(F)(F)F)n1
Second: CC(C)(O)c1cn(-c2ccc(-c3cccc(S(C)(=O)=O)c3)cc2)c(-c2ccccc2Cl)n1
The concentration at 24 h of the first is 100-fold lower: 0.02 µM for the first, 2 µM for the second.

In the case of CS(=O)(=O)c1cccc(-c2ccc(-c3cc(C(F)(F)F)nn3-c3ccccc3C(F)(F)F)s2)c1, the concentration at 24 h is reported as 4.1 µM.

target: Retinoic acid receptor RXR-alpha/oxysterols receptor LXR-alpha (Homo sapiens, UniProt Q13133); assay: Binding affinity to LXRalpha-RXRalpha heterodimer (unknown origin) expressed in insect cells by scintillation proximity assay; conditions: not given
Sequence (P19793 whole entry, one chain of several): as the sequence (P19793 whole entry, one chain of several) above

Compared with N#Cc1c(C(F)(F)F)cc(-c2ccc(Oc3ccccc3)cc2)n(Cc2ccc(F)cc2F)c1=O, CS(=O)(=O)c1cccc(-c2ccc(-c3cc(C(F)(F)F)c(C#N)c(=O)n3Cc3ccc(F)cc3F)s2)c1 is 2.4-fold lower in Ki: 26 nM for the first, 11 nM for the second.

Going from CS(=O)(=O)c1cccc(-c2ccc(-c3cc(C(F)(F)F)nn3Cc3ccc(F)cc3F)s2)c1 to CS(=O)(=O)c1cccc(-c2ccc(-c3cc(C(F)(F)F)nn3-c3ccccc3C(F)(F)F)s2)c1, the Ki rises from 20 nM to 240 nM (12-fold). The first binds more tightly here.

First: CC(C)(O)c1cn(-c2ccc(-c3cccc(S(C)(=O)=O)c3)cc2)c(Cc2ccccc2C(F)(F)F)n1
Second: CC(C)(O)c1cn(-c2ccc(-c3cccc(S(C)(=O)=O)c3)cc2)c(-c2ccccc2Cl)n1
The Ki of the first is 24-fold lower: 66 nM for the first, 1600 nM for the second.

Compared with COC(=O)c1cc(-c2ccc(-c3cccc(S(C)(=O)=O)c3)s2)n(-c2ccccc2Cl)n1, CC(C)(O)c1cc(-c2ccc(-c3cccc(S(C)(=O)=O)c3)s2)n(-c2ccccc2Cl)n1 is 10-fold higher in Ki: 150 nM for the first, 1500 nM for the second.

tested on: not listed separately; assay: Plasma concentration in mouse at 30 mg/kg, po measured at 4 hrs post dose; assay type: ADME, organism-based; design: dose 30 mg/kg, route oral; conditions: not given

Compared with CC(C)(O)c1cn(-c2ccc(-c3cccc(S(C)(=O)=O)c3)cc2)c(Cc2ccccc2C(F)(F)F)n1, CC(C)(O)c1cn(-c2ccc(-c3cccc(S(C)(=O)=O)c3)cc2)c(-c2ccccc2Cl)n1 is 2.3-fold higher in concentration at 4 h: 6 µM for the first, 14 µM for the second.

With CS(=O)(=O)c1cccc(-c2ccc(-c3cc(C(F)(F)F)nn3-c3ccccc3C(F)(F)F)s2)c1 the concentration at 4 h was 6.9 µM.

target: T2, Liver X receptor; assay: Transactivation of LXR in human whole blood assessed as induction of ABCA1 after 4 hrs by SYBR-Green quantitative PCR analysis; conditions: not given

Compared with CC(C)(O)c1cn(-c2ccc(-c3cccc(S(C)(=O)=O)c3)cc2)c(Cc2ccccc2C(F)(F)F)n1, CC(C)(O)c1cn(-c2ccc(-c3cccc(S(C)(=O)=O)c3)cc2)c(-c2ccccc2Cl)n1 is 2.7-fold higher in EC50: 3100 nM for the first, 8300 nM for the second. The first is the more potent here.

target: T3, Oxysterols receptor LXR-alpha (Homo sapiens, UniProt Q13133); assay: Transactivation of LXRalpha (unknown origin) expressed in CV1 cells by luciferase reporter gene assay; assay type: cell-based, CV-1; conditions: not given
T3 sequence (Q13133 whole entry): T2 sequence (Q13133 whole entry)

First: N#Cc1c(C(F)(F)F)cc(-c2ccc(Oc3ccccc3)cc2)n(Cc2ccc(F)cc2F)c1=O
Second: CS(=O)(=O)c1cccc(-c2ccc(-c3cc(C(F)(F)F)c(C#N)c(=O)n3Cc3ccc(F)cc3F)s2)c1
The EC50 of the first is 5-fold higher: 20 nM for the first, 4 nM for the second.

Going from CS(=O)(=O)c1cccc(-c2ccc(-c3cc(C(F)(F)F)nn3Cc3ccc(F)cc3F)s2)c1 to CS(=O)(=O)c1cccc(-c2ccc(-c3cc(C(F)(F)F)nn3-c3ccccc3C(F)(F)F)s2)c1, the EC50 rises from 18 nM to 120 nM (6.7-fold).

First: CC(C)(O)c1cn(-c2ccc(-c3cccc(S(C)(=O)=O)c3)cc2)c(Cc2ccccc2C(F)(F)F)n1
Second: CC(C)(O)c1cn(-c2ccc(-c3cccc(S(C)(=O)=O)c3)cc2)c(-c2ccccc2Cl)n1
The EC50 of the first is lower: 200 nM for the first, over 10000 nM for the second.

First: COC(=O)c1cc(-c2ccc(-c3cccc(S(C)(=O)=O)c3)s2)n(-c2ccccc2Cl)n1
Second: CC(C)(O)c1cc(-c2ccc(-c3cccc(S(C)(=O)=O)c3)s2)n(-c2ccccc2Cl)n1
The EC50 of the first is 8.3-fold lower: 65 nM for the first, 540 nM for the second.
